Literature values, collected in patent US20100272800A1 (SANOVEL ILAC SANAYI VE TICARET ANONIM SIRKETI, priority 2009, published 2010).

With Cc1cc2c(s1)Nc1ccccc1N=C2N1CCN(C)CC1 [Olanzapine, 2-methyl-4-(4-methyl-1-piperazinyl)-10H-thieno[2,3-b][1,5] benzodiazepine] as the compound, how does the solubility in water read?
The solubility in water was “practically insoluble in water”.
